# Laboratory results as given in article PMC4306142, “Structure of mycobacterial maltokinase, the missing link in the essential GlgE-pathway” (Scientific Reports, 2015).
# Tests used:
# Mak^Mvan [1] = target: T1, Mak^Mvan (Mycolicibacterium austroafricanum, UniProt A1TH50)
# Mak^Mvan [2] = target: T1, Mak^Mvan; experiment: X-ray crystal structure, […] Å; format: binding; parameters: full length (model Thr2-Gly441), C-terminal linker and His-tag kept, 454 residues in all; pET30a, NdeI/HindIII, E. coli; monomer; settings: co-crystallised with 4 mM AppCp, two Mg2+; nucleotide site, two conformations
# [3] = system: Nc1nc2c(ncn2[C@@H]2O[C@H](COP(=O)(O)OP(=O)(O)OP(=O)(O)O)[C@@H](O)[C@H]2O)c(=O)[nH]1; experiment: purified protein; format: biochemical, Mycolicibacterium austroafricanum; settings: pH 7.5; 30.0 °C
# T1 sequence (A1TH50 whole entry): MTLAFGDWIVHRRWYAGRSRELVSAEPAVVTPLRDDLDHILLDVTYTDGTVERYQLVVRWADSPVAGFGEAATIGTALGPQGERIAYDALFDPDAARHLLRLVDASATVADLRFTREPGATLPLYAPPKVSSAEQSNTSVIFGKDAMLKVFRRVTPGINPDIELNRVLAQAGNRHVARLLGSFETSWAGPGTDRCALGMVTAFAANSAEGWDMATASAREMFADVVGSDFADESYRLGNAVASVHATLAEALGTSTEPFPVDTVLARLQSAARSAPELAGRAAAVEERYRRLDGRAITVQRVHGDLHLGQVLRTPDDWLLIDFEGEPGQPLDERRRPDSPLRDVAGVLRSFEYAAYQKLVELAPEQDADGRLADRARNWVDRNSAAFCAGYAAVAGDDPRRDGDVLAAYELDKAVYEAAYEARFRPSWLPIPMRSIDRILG
molecule,measurement,setting,value
Nc1ncnc2c1ncn2[C@@H]1O[C@H](COP(=O)(O)OP(=O)(O)OP(=O)(O)O)[C@@H](O)[C@H]1O [ATP],"X-ray crystal structure, 1.71 Å",Mak^Mvan [1],4WZY (Mak^Mvan:ATP complex)
"Nc1ncnc2c1ncn2[C@@H]1O[C@H](COP(=O)(O)OP(=O)(O)CP(=O)(O)O)[C@@H](O)[C@H]1O [AppCp, adenosine-5′-[(β,γ)-methyleno] triphosphate]","X-ray crystal structure, 1.15 Å",Mak^Mvan [2],structure of Mak^Mvan in complex with the non-hydrolysable ATP analog
(Mycolicibacterium vanbaalenii PYR-1),Km,[3],5.8 ± 1.4 mM
